Reference: patent US10420746B2, “Pharmaceutical composition containing Bay 11-7082, parthenolide or a combination thereof for the treatment of obesity or cardiovascular diseases” (priority 2015, dated 2019)

Assays:
[1] = target: T1, glutathione reductase (GR) (Homo sapiens, UniProt P00390); assay: Glutathione reductase (GR) enzyme activity in lysates of treated human erythrocytes; details: for inhibition of the enzyme GR: concentration not given
T1 sequence (P00390 1-479 isoform P00390-2): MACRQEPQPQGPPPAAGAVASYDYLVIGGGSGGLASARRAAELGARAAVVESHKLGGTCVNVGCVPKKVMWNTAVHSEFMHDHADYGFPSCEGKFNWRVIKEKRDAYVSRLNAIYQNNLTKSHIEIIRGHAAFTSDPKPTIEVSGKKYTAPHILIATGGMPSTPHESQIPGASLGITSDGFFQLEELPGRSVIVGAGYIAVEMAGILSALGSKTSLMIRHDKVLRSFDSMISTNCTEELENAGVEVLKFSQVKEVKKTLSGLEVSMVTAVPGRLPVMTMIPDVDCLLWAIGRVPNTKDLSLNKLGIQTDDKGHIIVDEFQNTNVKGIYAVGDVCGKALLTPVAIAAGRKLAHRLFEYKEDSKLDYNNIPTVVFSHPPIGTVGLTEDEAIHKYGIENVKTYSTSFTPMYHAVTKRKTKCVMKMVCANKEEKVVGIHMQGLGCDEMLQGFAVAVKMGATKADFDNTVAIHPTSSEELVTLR

human erythrocytes = assay: GSH:GSSG ratio in treated human erythrocytes; details: 24 hours, 0.6% hematocrit, DMSO control 125:1
[2] = target: glucose-6-phosphate dehydrogenase (G6PDH) (Homo sapiens, UniProt P11413); assay: G6PDH enzyme activity in lysates of treated human erythrocytes; design: inhibition of the G6PDH activity: dose or concentration left out as unconfirmed
Chain of glucose-6-phosphate dehydrogenase (G6PDH) (P11413 whole entry): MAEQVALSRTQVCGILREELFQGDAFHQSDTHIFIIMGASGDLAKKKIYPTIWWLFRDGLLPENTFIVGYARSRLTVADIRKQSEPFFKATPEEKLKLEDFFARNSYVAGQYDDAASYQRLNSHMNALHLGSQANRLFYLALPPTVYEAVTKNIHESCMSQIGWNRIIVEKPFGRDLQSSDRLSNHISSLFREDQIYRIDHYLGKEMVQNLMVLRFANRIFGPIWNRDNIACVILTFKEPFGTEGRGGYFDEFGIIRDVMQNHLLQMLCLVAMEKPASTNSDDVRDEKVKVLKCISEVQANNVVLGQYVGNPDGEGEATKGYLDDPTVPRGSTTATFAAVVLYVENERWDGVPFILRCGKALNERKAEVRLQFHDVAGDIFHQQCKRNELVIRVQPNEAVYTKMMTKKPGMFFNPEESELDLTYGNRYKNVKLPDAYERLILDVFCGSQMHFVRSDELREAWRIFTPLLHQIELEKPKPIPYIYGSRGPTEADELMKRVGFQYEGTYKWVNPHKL

GSR inhibition ([1]; 20 μM, erythrocytes 0.6% Hct treated 24 hours) | inhibition of the enzyme GR [1] | inhibition of the G6PDH activity ([2]; (clinically relevant concentration), erythrocytes treated 24 hours) | inhibition of G6PDH ([2]; already in low concentrations) | inhibition at 20 µM ([2]; read-out: G6PDH-inhibition) [%] | inhibition at 140 µM ([1]; read-out: GR inhibition) [%] | inhibition at 140 µM ([2]; read-out: inhibition of G6PDH) [%] | SMILES | GSH:GSSG ratio (human erythrocytes; 20 μM) | GSH:GSSG ratio (human erythrocytes; 140 μM)
complete GSR inhibition | completely | complete inhibition | complete | 100 |  |  | Cc1ccc(S(=O)(=O)/C=C/C#N)cc1 [Bay 11-7082, 3-[(4-methylphenyl)sulfonyl]-(2E)-propenenitrile] | equal to 0 or approaching 0 | 
 | 50% |  |  |  | ≥ 50 | ≥ 50 | COC(=O)/C=C/C(=O)OC [dimethylfumarate, (E)-2-butenedioic acid dimethyl ester] |  | equal to 0 or approaching 0
